Experimental data reported in patent US20250262170A1, “COMBINATIONS OF BETA 2-ADRENERGIC RECEPTOR AGONISTS AND BETA 3-ADRENERGIC RECEPTOR AGONISTS, AND MEDICAL USES THEREOF” (ATROGI AB, priority 2022, published 2025).

The compounds below were run against T1, human β3-adrenergic receptor (Homo sapiens, UniProt P13945) (assay: cAMP levels in CHO-K1 cells expressing the human β3-adrenergic receptor). Details: CHO-K1, 0.25 h, 15 min, read-out: Activity (intracellular cAMP compared to that of isoproterenol).
T1 construct: expressed in transfected cells
T1 sequence (P13945 whole entry): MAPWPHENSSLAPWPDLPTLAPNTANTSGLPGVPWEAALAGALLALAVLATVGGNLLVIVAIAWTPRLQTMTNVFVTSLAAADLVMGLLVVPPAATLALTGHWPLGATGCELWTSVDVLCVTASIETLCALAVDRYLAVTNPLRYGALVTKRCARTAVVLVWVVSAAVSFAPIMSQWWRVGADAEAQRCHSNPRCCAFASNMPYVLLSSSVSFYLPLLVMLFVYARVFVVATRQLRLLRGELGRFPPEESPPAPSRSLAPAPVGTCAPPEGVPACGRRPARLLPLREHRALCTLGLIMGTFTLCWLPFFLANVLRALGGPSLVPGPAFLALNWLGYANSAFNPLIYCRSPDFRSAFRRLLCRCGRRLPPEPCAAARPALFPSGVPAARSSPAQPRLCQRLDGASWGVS
Type: cell-based
Protocol: CHO-K1 cells stably expressing the human β3-adrenergic receptors were serum-starved overnight and stimulated with an agonist, final concentration 1×10^−5 M, for 15 min in stimulation buffer (HBSS supplemented with 1% BSA, 5 mM HEPES and 1 mM IBMX, pH 7.4) The medium was then aspirated and to end the reaction, 100 μL of 95% EtOH was added to each well of the 24-well plate and cells were kept at −20° C. overnight. The next day EtOH was allowed to evaporate and 250 μL of lysis buffer (1% BSA, 5 mM HEPES and 0.3% Tween-20, pH 7.4) was added to each well. The plate was kept at −80° C. for 30 min and thawed in room temperature. Intracellular cAMP levels were detected using an alpha screen cAMP kit (6760635D from Perkin Elmer). The activity for each compound is compared to that of isoproterenol.
With CC(=O)N[C@H]1CC[C@@H](C[C@@H]2CC[C@H]([C@H](O)c3cccc(F)c3F)N2)CC1 [Compound 1, N-((cis)-4-(((2S,5R)-5-((R)-(2,3-difluorophenyl)-(hydroxy)methyl)pyrrolidin-2-yl)methyl)cyclohexyl)-acetamide] the Emax at 10 µM was over 75%.
For CN(C)C(=O)N1CCC[C@@H](CC(C)(C)NC[C@H](O)c2cncc(F)c2)C1 [Compound 2, (S)-3-(2-(((R)-2-(5-fluoro-pyridin-3-yl)-2-hydroxy-ethyl)amino)-2-methyl-propyl)-N,N-dimethyl-piperidine-1-carboxamide], the Emax at 10 µM was 50 to 75%.
With CNC(=O)N1CCC[C@@H](CC(C)(C)NC[C@H](O)c2cccc(F)c2)C1 [Compound 3, (S)-3-(2-(((R)-2-(3-fluorophenyl)-2-hydroxy-ethyl)amino)-2-methyl-propyl)-N-methylpiperidine-1-carboxamide] the Emax at 10 µM was over 75%.
In the case of CN(C)C(=O)N1CCC[C@@H](CC(C)(C)NC[C@H](O)c2cccc(F)c2)C1 [Compound 4, (S)-3-(2-(((R)-2-(3-fluoro-phenyl)-2-hydroxyethyl)-amino)-2-methylpropyl)-N,N-dimethylpiperidine-1-carboxamide], the Emax at 10 µM is reported as over 75%.
COC(=O)N1CCC[C@@H](CC(C)(C)NC[C@H](O)c2cccc(F)c2)C1 [Compound 5, methyl (S)-3-(2-(((R)-2-(3-fluorophenyl)-2-hydroxy-ethyl)amino)-2-methyl-propyl)piperidine-1-carboxylate] showed an Emax at 10 µM of over 75%.
For CO[C@H]1CC[C@H](C[C@@H]2CC[C@H]([C@H](O)c3cccc(F)c3F)N2)CC1 [Compound 6, (R)-(2,3-difluorophenyl)-((2R,5S)-5-(((trans)-4-methoxycyclohexyl)methyl)-pyrrolidin-2-yl)methanol], the Emax at 10 µM was over 75%.
CO[C@H]1CC[C@@H](C[C@@H]2CC[C@H]([C@H](O)c3cccc(F)c3F)N2)CC1 [Compound 7, (R)-(2,3-difluorophenyl)-((2R,5S)-5-(((cis)-4-methoxycyclohexyl)methyl)-pyrrolidin-2-yl)methanol] gave an Emax at 10 µM of 50 to 75%.
In the case of CC(C)(C[C@@H]1CCCN(C(=O)C(F)(F)F)C1)NC[C@H](O)c1cccc(F)c1 [Compound 9, 2,2,2-trifluoro-1-((S)-3-(2-(((R)-2-(3-fluorophenyl)-2-hydroxyethyl)amino)-2-methylpropyl)piperidin-1-yl)-ethan-1-one], the Emax at 10 µM is reported as 50 to 75%.
Work on CCCS(=O)(=O)N[C@H]1CC[C@H](CC(C)(C)NC[C@H](O)c2cncc(F)c2)CC1 [Compound 10, N-((trans)-4-(2-(((R)-2-(5-fluoropyridin-3-yl)-2-hydroxyethyl)amino)-2-methylpropyl)cyclohexyl)-propane-1-sulfonamide] yielded an Emax at 10 µM of over 75%.
CC(C)(C[C@H]1CC[C@H](NS(=O)(=O)C(F)(F)F)CC1)NC[C@H](O)c1cncc(F)c1 [Compound 11, 1,1,1-trifluoro-N-((1R,4r)-4-(2-(((R)-2-(5-fluoropyridin-3-yl)-2-hydroxyethyl)amino)-2-methylpropyl)cyclohexyl)-methanesulfonamide] was tested, and the Emax at 10 µM was over 75%.
CCCCS(=O)(=O)N[C@H]1CC[C@@H](CC(C)(C)NC[C@H](O)c2cccc(F)c2)CC1 [Compound 12] was tested, and the Emax at 10 µM was over 75%.
For CCCCS(=O)(=O)N[C@H]1CC[C@H](CC(C)(C)NC[C@H](O)c2cccc(F)c2)CC1 [Compound 13], the Emax at 10 µM was over 75%.
For CC(C)CS(=O)(=O)N[C@H]1CC[C@@H](CC(C)(C)NC[C@H](O)c2cncc(F)c2)CC1 [Compound 14, N-((cis)-4-(2-(((R)-2-(5-fluoropyridin-3-yl)-2-hydroxyethyl)amino)-2-methylpropyl)cyclohexyl)-2-methylpropane-1-sulfonamide], the Emax at 10 µM was 50 to 75%.
CC(C)CS(=O)(=O)N[C@H]1CC[C@@H](CC(C)(C)NC[C@H](O)c2cccc(F)c2)CC1 [Compound 16, N-((cis)-4-(2-(((R)-2-(3-fluorophenyl)-2-hydroxy-ethyl)amino)-2-methyl-propyl)cyclohexyl)-2-methyl-propane-1-sulfonamide] gave an Emax at 10 µM of over 75%.
